Results published in US11053204B2, “Pyrimidinyloxy benzene derivatives as herbicides” (FMC Corporation, priority 2015, dated 2021).

Legend:
Type in all cases: in vivo
[1] = test system: barnyardgrass (Echinochloa crus-galli); assay: Test B flooded paddy test, plant response rating; conditions: Echinochloa crus-galli, 312 h; 250 g ai/ha; Flood; scale of 0 to 100 where 0 is no effect and 100 is complete control; 13 to 15 days
Procedure, shortened: (§1)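 Ratings were visual and made relative to untreated controls after 13 to 15 greenhouse days.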

[2] = test system: sedge, umbrella (small-flower umbrella sedge, Cyperus difformis); assay: Test B flooded paddy test, plant response rating; conditions: Cyperus difformis, 312 h; 250 g ai/ha; Flood; scale of 0 to 100 where 0 is no effect and 100 is complete control; 13 to 15 days
Procedure, shortened: as §1

[3] = test system: ducksalad (Heteranthera limosa); assay: Test B flooded paddy test, plant response rating; conditions: Heteranthera limosa, 312 h; 250 g ai/ha; Flood; scale of 0 to 100 where 0 is no effect and 100 is complete control; 13 to 15 days
Procedure, shortened: as §1

rice (Oryza sativa) = assay: Test B flooded paddy test, plant response rating; conditions: Oryza sativa, 312 h; 250 g ai/ha; Flood; scale of 0 to 100 where 0 is no effect and 100 is complete control; 13 to 15 days
Procedure, shortened: as §1

[4] = test system: oilseed rape (Brassica napus); assay: Test C preemergence, plant response rating; conditions: Brassica napus, pre-emergence, Preemergence
Procedure, shortened: (§2)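 Visual injury score, 0 = no effect, 100 = complete control, assigned against untreated controls after 13 to 15 d in the greenhouse. Compounds were applied in a surfactant-containing non-phytotoxic solvent mix, preemergence to seeded loam/sand or silt loam soil, or postemergence to 1- to 4-leaf plants (2 to 18 cm).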

[5] = test system: wheat (winter wheat, Triticum aestivum); assay: Test C preemergence, plant response rating; conditions: Triticum aestivum, pre-emergence, Preemergence
Procedure, shortened: as §2

[6] = test system: foxtail, giant (giant foxtail, Setaria faberii); assay: Test C preemergence, plant response rating; conditions: Setaria faberi, pre-emergence, Preemergence
Procedure, shortened: as §2

[7] = test system: crabgrass, large (large crabgrass, Digitaria sanguinalis); assay: Test C preemergence, plant response rating; conditions: Digitaria sanguinalis, pre-emergence, Preemergence
Procedure, shortened: as §2

[8] = test system: lambsquarters (Chenopodium album); assay: Test C preemergence, plant response rating; conditions: Chenopodium album, pre-emergence, Preemergence
Procedure, shortened: as §2

[9] = test system: velvetleaf (Abutilon theophrasti); assay: Test C preemergence, plant response rating; conditions: Abutilon theophrasti, pre-emergence, Preemergence
Procedure, shortened: as §2

[10] = test system: morningglory (Ipomoea coccinea); assay: Test C preemergence, plant response rating; conditions: Ipomoea, pre-emergence, Preemergence
Procedure, shortened: as §2

[11] = test system: blackgrass (Alopecurus myosuroides); assay: Test C preemergence, plant response rating; conditions: Alopecurus myosuroides, pre-emergence, Preemergence
Procedure, shortened: as §2

[12] = test system: ryegrass, Italian (Italian ryegrass, Lolium multiflorum); assay: Test C preemergence, plant response rating; conditions: Lolium multiflorum, pre-emergence, Preemergence
Procedure, shortened: as §2

[13] = test system: ragweed (common ragweed, Ambrosia elatior); assay: Test C preemergence, plant response rating; conditions: Ambrosia artemisiifolia, pre-emergence, Preemergence
Procedure, shortened: as §2

[14] = test system: nutsedge, yellow (yellow nutsedge, Cyperus esculentus); assay: Test C preemergence, plant response rating; conditions: Cyperus, pre-emergence, Preemergence
Procedure, shortened: as §2

corn (Zea mays) = assay: Test C preemergence, plant response rating; conditions: Zea mays, pre-emergence, Preemergence
Procedure, shortened: as §2

soybean (Glycine max) = assay: Test C preemergence, plant response rating; conditions: Glycine max, pre-emergence, Preemergence, scale 0 to 100
Procedure, shortened: as §2

[15] = test system: waterhemp (common waterhemp, Amaranthus rudis); assay: Test C preemergence, plant response rating; conditions: Amaranthus tuberculatus, pre-emergence, Preemergence
Procedure, shortened: as §2

[16] = test system: foxtail, giant (giant foxtail, Setaria faberii); assay: Test C postemergence, plant response rating; conditions: Setaria faberi, post-emergence
Procedure, shortened: as §2

[17] = test system: morningglory (Ipomoea coccinea); assay: Test C postemergence, plant response rating; conditions: Ipomoea, post-emergence
Procedure, shortened: as §2

[18] = test system: chickweed (common chickweed, Stellaria media); assay: Test C postemergence, plant response rating; conditions: Stellaria media, post-emergence
Procedure, shortened: as §2

[19] = 62 g ai/ha, scale 0 to 100 (0 no effect, 100 complete control)
[20] = 125 g ai/ha, scale 0 to 100 (0 no effect, 100 complete control)

## O=C(OCCC(F)(F)F)c1c(Br)cccc1Oc1ncc(Cl)cn1 [Compound 26, 3,3,3-trifluoropropyl 2-bromo-6-[(5-chloro-2-pyrimidinyl)oxy]benzoate]
[1]
  pest or weed control at 250 g/ha: 60%
[2]
  pest or weed control at 250 g/ha: 100%
[3]
  pest or weed control at 250 g/ha: 100%
Rice (Oryza sativa)
  plant injury at 250 g/ha: 20%
[4]; 125 g ai/ha, scale of 0 to 100
  plant injury at 125 g/ha: 100%
[4]; 16 g ai/ha, scale 0 to 100
  plant injury at 16 g/ha: 80%
[4]; 31 g ai/ha, scale 0 to 100
  plant injury at 31 g/ha: 85%
[4]; 62 g ai/ha, scale 0 to 100
  plant injury at 62 g/ha: 100%
[5]; 125 g ai/ha, scale of 0 to 100
  plant injury at 125 g/ha: 15%
[5]; 16 g ai/ha, scale 0 to 100
  plant injury at 16 g/ha: 0%
[5]; 31 g ai/ha, scale 0 to 100
  plant injury at 31 g/ha: 20%
[5]; 62 g ai/ha, scale 0 to 100
  plant injury at 62 g/ha: 5%
[6]; 62 g ai/ha, scale of 0 to 100
  pest or weed control at 62 g/ha: 98%
[6]; 125 g ai/ha, scale of 0 to 100
  pest or weed control at 125 g/ha: 98%
[6]; 16 g ai/ha, scale 0 to 100
  pest or weed control at 16 g/ha: 95%
[6]; 31 g ai/ha, scale 0 to 100
  pest or weed control at 31 g/ha: 98%
[7]; 62 g ai/ha, scale of 0 to 100
  pest or weed control at 62 g/ha: 100%
[7]; 125 g ai/ha, scale of 0 to 100
  pest or weed control at 125 g/ha: 100%
[7]; 16 g ai/ha, scale 0 to 100
  pest or weed control at 16 g/ha: 98%
[7]; 31 g ai/ha, scale 0 to 100
  pest or weed control at 31 g/ha: 100%
[8]; 125 g ai/ha, scale of 0 to 100
  pest or weed control at 125 g/ha: 95%
[8]; 16 g ai/ha, scale 0 to 100
  pest or weed control at 16 g/ha: 70%
[8]; 31 g ai/ha, scale 0 to 100
  pest or weed control at 31 g/ha: 85%
[8]; 62 g ai/ha, scale 0 to 100
  pest or weed control at 62 g/ha: 95%
[9]; 125 g ai/ha, scale of 0 to 100
  pest or weed control at 125 g/ha: 100%
[9]; 16 g ai/ha, scale 0 to 100
  pest or weed control at 16 g/ha: 0%
[9]; 31 g ai/ha, scale 0 to 100
  pest or weed control at 31 g/ha: 30%
[9]; 62 g ai/ha, scale 0 to 100
  pest or weed control at 62 g/ha: 85%
[10]; 125 g ai/ha, scale of 0 to 100
  pest or weed control at 125 g/ha: 95%
[10]; 16 g ai/ha, scale 0 to 100
  pest or weed control at 16 g/ha: 20%
[10]; 31 g ai/ha, scale 0 to 100
  pest or weed control at 31 g/ha: 10%
[10]; 62 g ai/ha, scale 0 to 100
  pest or weed control at 62 g/ha: 85%
[11]; 62 g ai/ha, scale of 0 to 100
  pest or weed control at 62 g/ha: 90%
[11]; 125 g ai/ha, scale of 0 to 100
  pest or weed control at 125 g/ha: 90%
[11]; 16 g ai/ha, scale 0 to 100
  pest or weed control at 16 g/ha: 45%
[11]; 31 g ai/ha, scale 0 to 100
  pest or weed control at 31 g/ha: 90%
[12]; 125 g ai/ha, scale of 0 to 100
  pest or weed control at 125 g/ha: 95%
[12]; 16 g ai/ha, scale 0 to 100
  pest or weed control at 16 g/ha: 35%
[12]; 31 g ai/ha, scale 0 to 100
  pest or weed control at 31 g/ha: 75%
[12]; 62 g ai/ha, scale 0 to 100
  pest or weed control at 62 g/ha: 85%
[13]; 125 g ai/ha, scale of 0 to 100
  pest or weed control at 125 g/ha: 50%
[13]; 16 g ai/ha, scale 0 to 100
  pest or weed control at 16 g/ha: 20%
[13]; 31 g ai/ha, scale 0 to 100
  pest or weed control at 31 g/ha: 30%
[13]; 62 g ai/ha, scale 0 to 100
  pest or weed control at 62 g/ha: 60%
[14]; 125 g ai/ha, scale of 0 to 100
  pest or weed control at 125 g/ha: 45%
[14]; 16 g ai/ha, scale 0 to 100
  pest or weed control at 16 g/ha: 0%
[14]; 31 g ai/ha, scale 0 to 100
  pest or weed control at 31 g/ha: 0%
[14]; 62 g ai/ha, scale 0 to 100
  pest or weed control at 62 g/ha: 15%
Corn (Zea mays); 62 g ai/ha, scale of 0 to 100
  Corn plant response rating (crop injury, 0 = no effect, 100 = complete kill) at 62 g/ha: 25%
Corn (Zea mays); 125 g ai/ha, scale of 0 to 100
  Corn plant response rating (crop injury, 0 = no effect, 100 = complete kill) at 125 g/ha: 40%
Corn (Zea mays); 16 g ai/ha, scale 0 to 100
  Corn plant response rating (crop injury, 0 = no effect, 100 = complete kill) at 16 g/ha: 0%
Corn (Zea mays); 31 g ai/ha, scale 0 to 100
  Corn plant response rating (crop injury, 0 = no effect, 100 = complete kill) at 31 g/ha: 0%
Soybean (Glycine max); 31 g ai/ha
  plant injury at 31 g/ha: 10%
Soybean (Glycine max); 62 g ai/ha
  plant injury at 62 g/ha: 35%
[15]; 125 g ai/ha, scale of 0 to 100
  pest or weed control at 125 g/ha: 100%
[15]; 16 g ai/ha, scale 0 to 100
  pest or weed control at 16 g/ha: 100%
[15]; 31 g ai/ha, scale 0 to 100
  pest or weed control at 31 g/ha: 100%
[15]; 62 g ai/ha, scale 0 to 100
  pest or weed control at 62 g/ha: 100%
[16]; 16 g ai/ha, scale 0 to 100
  pest or weed control at 16 g/ha: 10%
[16]; 31 g ai/ha, scale 0 to 100
  pest or weed control at 31 g/ha: 10%
[16]; [19]
  pest or weed control at 62 g/ha: 10%
[16]; [20]
  pest or weed control at 125 g/ha: 25%
[17]; 16 g ai/ha, scale 0 to 100
  pest or weed control at 16 g/ha: 65%
[17]; 31 g ai/ha, scale 0 to 100
  pest or weed control at 31 g/ha: 60%
[17]; [19]
  pest or weed control at 62 g/ha: 65%
[17]; [20]
  pest or weed control at 125 g/ha: 85%
[18]; 16 g ai/ha, scale 0 to 100
  pest or weed control at 16 g/ha: 55%
[18]; 31 g ai/ha, scale 0 to 100
  pest or weed control at 31 g/ha: 80%
[18]; [19]
  pest or weed control at 62 g/ha: 85%
[18]; [20]
  pest or weed control at 125 g/ha: 98%
